The values below come from patent US12213481B1, “4,4′-[(2-hydroxypropane-1,3-diyl)bis(oxy)]dibenzaldehyde as an eco-friendly insecticidal agent against Spodoptera littoralis (boisd.)” (KING FAISAL UNIVERSITY, priority 2023, dated 2025).

In brackets after ≈: the same amount, converted by molar mass. Read-outs that look alike come from different tables or passages of the source.

The test system of series [1] is Spodoptera littoralis larvae (2nd and 4th instars, laboratory strain of cotton leafworm). Conditions: in vivo.
Procedure: (§1) Five concentrations (200, 100, 50, 25, 12.5 ppm) were designed for this synthetic compound and the reference fenoxycarb's compound as the dynamic ingredients based on ppm via diluting the commercial formulation.
(§2) In this experiment, the synthetic compound was tested for its insecticidal bioactivity using the industry-standard leaf dip bioassay techniques. […] Until usage, the stocks were kept in a refrigerator. The target substance test results were noted & the concentrations needed to destroy 50% (LC50) of S. littoralis larvae were calculated. The target compound was employed in five different concentrations, & 0.1% Tween 80 was employed as a surfactant. Castor bean leaf discs (nine centimeters in diameter) were dipped in the concentration under test for ten seconds, then fed to 2th & 4th larvae, which were roughly the same size and housed in glass jars (five pound). Each action carried out 3 times with ten larvae each. The mortality equalized via Abbott's formula. Calculations of mortality setback line were measurably rummage via probity analysis. Harmfulness index was strongminded via sun equations. The mortality results of larval insect were estimated through employing probit analysis through a statistics (LDP-line) equation which estimate the LC50 values with 95% fiducially limits of lower, upper confidence limit and slope.
The test system is the same in series [2]. The series is described as follows: Insecticidal leaf dip bioassay screening. Conditions: for Toxicity index %: fenoxycarb's LC50/compound's LC50 * 100; for LC50: Spodoptera littoralis, in Gossypium hirsutum, foliar, 72 h.
Procedure: as §1, §2
In series [3] the test system is aquatic insects. Conditions: cited from earlier work.
Setting [4] is: read-out: LC50 (mg/L) at 95%, 2nd instar larvae, after 72 hours of treatment, leaf dip.
[5] abbreviates: read-out: LC50 (mg/L) at 95%, 4th instar larvae, after 72 hours of treatment, leaf dip.

Consider `O=Cc1ccc(OCC(O)COc2ccc(C=O)cc2)cc1` [Compound 1, 4,4′-[(2-hydroxypropane-1,3-diyl)bis(oxy)]dibenzaldehyde], for which the “LC50 (mg/L) at 95%” value in series [1] is listed as “about 25.62 mg/L”. Also, the Toxicity index % in series [2] (2nd instar larvae, 72 hours) is on record as 22.93%; in series [2] (4th instar larvae, 72 hours), 69.54%. For the same compound, the LC50 in series [2] (setting [4]) was 25.6 mg/L (≈ 85.3 µM); in series [2] (setting [5]), roughly 86.1 mg/L (≈ 287 µM). The “activity against Spodoptera littoralis (in words)” value in series [2] (compared with the reference insecticide Fenoxycarb, 72 hours) is “active against Spodoptera littoralis”.
With `CCc1ccc(C(=O)NN(C(=O)c2cc(C)cc(C)c2)C(C)(C)C)cc1` [tebufenozide], the LC50 in series [3] was 100 to 1000 µg/mL.
With `CCOC(=O)NCCOc1ccc(Oc2ccccc2)cc1` [fenoxycarb, reference compound], the LC50 in series [2] (setting [4]) turned out to be 5.94 mg/L (≈ 19.7 µM); in series [2] (setting [5]) it was 59.9 mg/L (≈ 199 µM).
